The values below come from patent US8143216B2, “Modified human growth hormone” (Ambrx, Inc., priority 2004, dated 2012).

A value given as a limit tells only on which side of the number the result lay.

For series [1], the system named is rat GHR (L43R) expressing BAF3 cell line, 2E2-2B12-F4. Nature of the series: Proliferation by BrdU labeling. The series is classed as cell-based, mouse. To be noted: WHO hGH is expressed as unity. How it is done:
All cell cultures were maintained at 37° C. in a humidified atmosphere of 5% CO2.
(In general: Incorporation of labelled thymidine or its analogues reports DNA synthesis.)

The target in series [2] is T1, human growth hormone receptor on IM-9 cells (Homo sapiens, UniProt P10912).
T1 construct: host or cells: human IM-9 lymphocyte cell line
T1 sequence (P10912 19-638): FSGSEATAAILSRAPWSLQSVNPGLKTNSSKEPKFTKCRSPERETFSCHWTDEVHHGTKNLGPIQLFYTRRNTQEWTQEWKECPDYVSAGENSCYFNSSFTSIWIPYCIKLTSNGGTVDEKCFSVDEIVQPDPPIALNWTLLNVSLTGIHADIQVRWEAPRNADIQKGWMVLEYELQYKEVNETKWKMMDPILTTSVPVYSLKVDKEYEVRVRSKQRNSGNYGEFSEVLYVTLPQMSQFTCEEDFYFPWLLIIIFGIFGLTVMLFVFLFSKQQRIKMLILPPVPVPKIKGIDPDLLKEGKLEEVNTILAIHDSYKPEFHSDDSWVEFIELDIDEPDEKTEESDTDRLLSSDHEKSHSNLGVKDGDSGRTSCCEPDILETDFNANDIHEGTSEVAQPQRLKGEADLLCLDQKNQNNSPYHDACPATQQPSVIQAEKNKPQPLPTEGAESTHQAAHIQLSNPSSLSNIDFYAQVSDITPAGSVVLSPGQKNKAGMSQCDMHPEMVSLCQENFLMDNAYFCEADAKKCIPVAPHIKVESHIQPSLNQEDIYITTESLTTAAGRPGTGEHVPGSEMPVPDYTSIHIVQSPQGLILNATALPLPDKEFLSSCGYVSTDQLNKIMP
Kind of series: IM-9 pSTAT5 bioassay (STAT5 phosphorylation in IM-9 cells). The series is classed as cell-based. As to conditions: IM-9; WHO hGH is expressed as unity. The source says: (§1) To further assess the biological activity of modified hGH polypeptides, an assay measuring a downstream marker of hGH's interaction with its receptor was used. The interaction of hGH with its endogenously produced receptor leads to the tyrosine phosphorylation of a signal transducer and activator of transcription family member, STAT5, in the human IM-9 lymphocyte cell line. Two forms of STAT5, STAT5A and STAT5B were identified from an IM-9 cDNA library. See, e.g., Silva et al., Mol. Endocrinol. (1996) 10(5):508-518.
IM-9 cells were stimulated with hGH polypeptides of the present invention. The human IM-9 lymphocytes were purchased from ATCC (Manassas, Va.) and grown in RPMI 1640 supplemented with sodium pyruvate, penicillin, streptomycin (Invitrogen, Carlsbad, San Diego) and 10% heat inactivated fetal calf serum (Hyclone, Logan, Utah). The IM-9 cells were starved overnight in assay media (phenol-red free RPMI, 10 mM Hepes, 1% heat inactivated charcoal/dextran treated FBS, sodium pyruvate, penicillin and streptomycin) before stimulation with a 12-point dose range of hGH polypeptides for 10 min at 37° C. Stimulated cells were fixed with 1% formaldehyde before permeabilization with 90% ice-cold methanol for 1 hour on ice. The level of STAT5 phosphorylation was detected by intra-cellular staining with a primary phospho-STAT5 antibody (Cell Signaling Technology, Beverly, Mass.) at room temperature for 30 min followed by a PE-conjugated secondary antibody. Sample acquisition was performed on the FACS Array with acquired data analyzed on the Flowjo software (Tree Star Inc., Ashland, Oreg.). EC50 values were derived from dose response curves plotted with mean fluorescent intensity (MFI) against protein concentration utilizing SigmaPlot.
The interaction of hGH with its receptor leads to the tyrosine phosphorylation of a signal transducer and activator of transcription family member, STAT5, in the human IM-9 lymphocyte cell line.

The nature of series [3]: Rat pharmacokinetics: PEG-ahGH plasma concentration in the rat disease model. The series is classed as in vivo. How it is done:
The same plasma samples collected for IGF-1 concentration determination were also assayed for PEG-^ahGH concentration. […] The duration of PEG-^ahGH persistence in the circulation, as well as the overall PEG-^ahGH AUC, increased in a dose-dependent manner. […] The PEG-^ahGH exposure results support the dose-dependent efficacy shown above.
Plasma concentration versus time profiles for PEG-^ahGH administered subcutaneously at various doses in the rat disease model are shown in Example 34, above.

Series [4] relates to rat model of growth hormone deficiency (hypophysectomized rats). Nature of the series: Efficacy studies of PEGylated hGH in a rat model of growth hormone deficiency (Example 34). The series is classed as in vivo. How it is done: Preclinical efficacy studies were conducted in a rat model of growth hormone deficiency. In this model, the pituitary gland was surgically removed at approximately 4 weeks of age. The body weights of these hypophysectomized rats were monitored after surgery and animals showing less than 7.5 grams of bodyweight gain over a period of 7 days before the study were deemed successfully hypophysectomized and were randomized amongst the treatment groups. Animals showing more than 2.5 g of weight-loss were deemed not healthy and were excluded from the study. The study was initiated approximately 3 weeks after the surgery.
Animals were dosed weekly (i.e. dosed on days 0 and 7) with either placebo or increasing PEG-^ahGH dose. An additional treatment group received Genotropin or placebo daily. Bodyweights and blood were collected predose and daily. All animals were sacrificed on day 14.
For this parameter, the AUC is expressed as AUC above the efficacious IGF-1 plasma level. […] In the current study, the baseline IGF-1 level determined from the placebo group throughout the study was 128 ng/mL. An increase of 34 ng/mL over 128 ng/mL estimates an efficacious IGF-1 level of 162 ng/mL. Thus the AUC above 162 ng/mL was integrated. From this analysis, a dose-dependent increase in AUC above efficacious level was observed after each dose interval.
The duration of IGF-1 levels induced above the estimated efficacious level after the first dose was determined. At the higher doses, the IGF-1 levels had not returned to baseline before the second dose. In these instances, the IGF-1 concentration was extrapolated to the efficacious level using the calculated terminal slopes. From this evaluation, a dose-dependent increase in duration of IGF-1 concentration above the efficacious level was evident.
Bone growth was used as an additional pharmacodynamic measure to calculate the PEG-^ahGH ED50. Tibias were collected from each animal at the end of the study and immersion fixed in 10% neutral-buffered formalin followed by radiography. There was a clear dose-dependent increase in tibial bone length for the PEG-^ahGH treated animals. Moreover, there was a dose sparing effect compared to the daily Genotropin treated animals. The amount of Genotropin administered over a 7-day interval is equivalent to 2.1 mg/kg of PEG-^ahGH given weekly (i.e., days 0 and 7). An induction of tibial bone length increase similar to Genotropin is shown for PEG-^ahGH at 0.42 to 1.0 mg/kg. This represents a ≧50% dose-sparing effect for PEG-^ahGH when compared to Genotropin.

Series [5] deals with T1, human growth hormone receptor on IM-9 cells. Kind of series: Inhibition of WHO hGH induced phosphorylation of STAT5 in IM-9 cells. The series is classed as cell-based.
Source text: as §1

Setting [6] is: On day 14, after 2 weekly s.c. doses.
Where [7] appears, read: after the first dose, curve fitting.
[8] abbreviates: curve fitting of the AUC values from the first dose.
The mark [9] stands for this setting: curve fitting of the Cmax values from the first dose.

For orientation: EC50 means the midpoint of the concentration-response curve. A higher EC50 goes with a need for much substance.

Consider “F92pAF/G120R-30KPEG: hGH with G120R and p-acetyl-phenylalanine at position 92 linked to 30 kDa PEG”, for which the EC50 in series [1] and in series [2] was above 200 µM each time.

Turning to “F92pAF/G120R: hGH with p-acetyl-phenylalanine substituted for F92 and a G120R substitution”, the EC50 in series [1] and in series [2] was above 200 µM each time.

For the molecule “PEG-^ahGH: PEGylated hGH of SEQ ID NO:2, para-acetylphenylalanine at position 35 linked via an oxime bond to a linear 30 kDa PEG”, the “plasma concentration (hGH ELISA)” value in series [3] (hypophysectomized rats, PEG-ahGH s.c. on days 0 and 7, Genotropin daily) was “dose-dependent increase in PEG-^ahGH Cmax”. The apparent terminal half-life in series [3] (in rat, subcutaneous) was 7.05 (+/−0.47) hours. Also, the “bodyweight change on day 14” value in series [4] (1.0 mg/kg on days 0 and 7) was 27.02 (+/−3.97) %. Further, in series [4] (2.1 mg/kg on days 0 and 7), the “bodyweight change on day 14 from day 0” value is listed as 33.66 (+/−7.55) %. In addition, in series [4] (After single s.c. dose), the “ED50, Duration of IGF-1 Above Efficacious Level” value is listed as 0.173 mg/kg; the “ED50, IGF-1 AUC Above Efficacious Level” value is 0.909 mg/kg; the “ED50, IGF-1 Induction: IGF-1 Cmax” value was determined as 0.136 mg/kg; the “Range of Effect (Eo-Emax), Duration of IGF-1 Above Efficacious Level” value was in the range of 0 to 8.84 days. Moreover, the “Range of Effect (Eo-Emax), IGF-1 AUC Above Efficacious Level” value in series [4] (After single s.c. dose, AUC above 162 ng/mL) is reported as 0-5,029.8 ng × hr/mL. Besides, in series [4] (setting [6]), the “ED50, Tibial Bone Length” value was 0.424 mg/kg; the “Range of Effect (Eo-Emax), Percent Bodyweight Change” value is listed as 7.17-50.65%; the “Range of Effect (Eo-Emax), Tibial Bone Length” value is 30.52-33.67 mm. Further, the “dose-sparing effect over Genotropin (percent bodyweight change)” value in series [4] (PEG-ahGH 1.0 mg/kg on days 0 and 7 vs Genotropin 0.3 mg/kg/day) was around 50%. The “dose-sparing effect when compared to Genotropin (tibial bone length)” value in series [4] (PEG-ahGH 0.42 to 1.0 mg/kg weekly vs daily Genotropin equivalent to 2.1 mg/kg weekly) is reported as at least 50%. Further, in series [4] (setting [7]), the “maximum duration of IGF-1 concentration above the efficacious level” value is listed as 8.84 days and the “minimum duration of IGF-1 concentration above the efficacious level” value is 0 days. Also, in series [4] (setting [8]), the “Emax IGF-1 AUC above efficacious level” value is given as 5,029.8 ng×hr/mL and the “Eo IGF-1 AUC above efficacious level” value turned out to be 0 ng·h/mL. Besides, in series [4] (setting [9]), the “maximum (Emax) IGF-1 Cmax” value is 1,136.2 ng/mL and the “minimum (Eo) IGF-1 Cmax” value is 136.7 ng/mL. In addition, in series [4] (day 14, curve fitting), the “maximum percent bodyweight change” value turned out to be 50.65% and the “minimum percent bodyweight change” value amounted to 7.17%. In addition, the “plasma IGF-1 levels throughout the study” value in series [4] (dosed weekly (days 0 and 7) with increasing dose, FIG. 28) is on record as “robust, dose-dependent increase in IGF-1”.

B1: rat GHR (L43R) extra cellular domain: extracellular domain of rat GH receptor (amino acids S29-T238) with L43 to R mutation (protein)
chain: SSGKPRFTKCRSPERETFSCYWTEGDDHNLKVPGSIQLYYARRIAHEWTPEWKECPDYVSAGANSCYFNSSYTSIWIPYCIKLTTNGDLLDEKCFTVDEIVQPDPPIGLNWTLLNISLPGIRGDIQVSWQPPPSADVLKGWIILEYEIQYKEVNETKWKTMSPIWSTSVPLYSLRLDKEHEVRVRSRQRSFEKYSEFSEVLRVTFPQMDT
modifications: left off: small tags and cut ends
notes: extracellular domain of rat GH receptor (amino acids S29-T238) with L43 to R mutation
As for B1, in series [5], the “competition against hGH stimulated pSTAT5 phosphorylation / antagonist potency” value is “compete effectively against hGH stimulated pSTAT5 phoshorylation”.
